In EP2156835A1, “New therapeutic use of drotaverine” (Sanofi-Aventis, priority 2008, dated 2010):

System: human isolated detrusor muscle
Test: Relaxation of U46619-induced plateau of contraction in human isolated detrusor muscle strips (organ bath)
Conditions: for Emax at 100 µM / EC50: Homo sapiens; for Emax at 100 µM: at the concentration of 100 µM, percent relaxation of 1 µM U46619 plateau, 10 µM forskolin taken as 100% relaxation, read-out: maximal relaxant effect (Emax); for EC50: mean, relaxation of plateau of contraction induced by 1 µM U46619 after priming with 0.1 µM forskolin, CRC 0.03 - 100 µM, non linear regression fit, read-out: pEC50 (-log EC50) (converted)
Method: The detrusor muscle was separated from mucosa and adventitia and cut into small strips which were mounted, under 1 g initial tension, in 5 mL glass organ baths containing oxygenated Krebs-Henseleit solution (composition in mM: NaCl 114, KCl 4.7, CaCl2 2.5, MgS04 1.2, KH2PO4 1.2, NaHCO3 25, glucose 11.7) kept at 37°C. Tissues were allowed to equilibrate for at least 60 minutes during which time the Krebs solution was replaced every 15 min. After the stabilization period, a reference contraction to 80 mM KCl was performed on each strip. Tissues having a contraction less than 1 g were discarded. After wash-outs and a further 45 min of re-equilibration, during which the resting tension was adjusted periodically, each strip was primed with 0.1 µM forskolin, an adenylyl cyclise activator, for 10 min then recontracted with 1 µM U46619 for at least 20 min, until a stable plateau of contraction was obtained. Strips having a plateau of contraction less than 0.2 g were discarded. After obtaining a stable plateau of contraction, concentration-responses curves (CRC) to drotaverine and rolipram (0.03 - 100 µM) or the common vehicle (DMSO from 0.003 to 1 % in the organ bath) were performed. At the end of the CRC, the maximal relaxant effect for each strip was determined following application of 10 µM forskolin into the organ baths. Only one CRC to each substance or solvent was tested in a single strip. CRCs were constructed using 8 bladder strips from 4 different patients. Results were expressed as percent relaxation of the plateau of contraction induced by 1 µM U46619, with respect to the maximal effect obtained with 10 µM forskolin taken as 100% relaxation.
All CRCs were fitted by non linear regressions using the software GraphPad Prism® version 4.0 to obtain the following parameters: Emax: Maximal relaxation induced by the tested substance; EC50: the concentration which induces 50% of the maximum effect, expressed as pEC50 (-log EC50). Comparisons of the CRCs were performed with two-way analysis of variance (ANOVA) statistical analysis test and Bonferroni post-test. All differences will be considered statistically significant when the null hypothesis can be rejected at a risk α of less than 0.05.

| Compound | Emax at 100 µM | EC50 | relaxation of U46619-induced human detrusor contraction (from 0.03 to 100 µM) | relaxation of U46619-contracted detrusor strips (from 0.03 to 10 µM) | relaxation of U46619-induced detrusor muscle contraction (from 30 to 100 µM) |
| --- | --- | --- | --- | --- | --- |
| COc1ccc(C2CNC(=O)C2)cc1OC1CCCC1 (stereo not shown) [rolipram] | 89.5 ± 2.68% | 0.151 µM | significant concentration-dependent relaxation | – | – |
| CCOc1ccc(C=C2NCCc3cc(OCC)c(OCC)cc32)cc1OCC [drotaverine, 1-[(3,4-diethoxyphenyl)methylene]-6,7-diethoxy-1,2,3,4-tetrahydro-isoquinoline] | 80.8 ± 3.07% | 32.4 µM | – | slight relaxation | significant concentration-dependent relaxation |
